Results published in patent US20160264602A1, “MANUFACTURING METHOD OF SILATRANE WITH THIOL GROUP AND PRESERVATION METHOD THEREOF” (NATIONAL CHUNG CHENG UNIVERSITY, priority 2015, published 2016).

How the values were obtained:
[1] = Solubility of MPS in DMSO as time passes after manufacture; type: physicochemical
Procedure: No matter what kind of foregoing method, the product must be dissolved in organic solvent within 30 minutes. The solubility of MPS in aqueous phase or organic phase solvents will decrease as time passes.

[2] = Tests of preserving method: MPS dissolution and self-assembly of gold nanoparticles on MPS-modified glass substrate; type: physicochemical
Procedure: Performing the tests of three preserving methods that preserve MPS under atmospheric condition, under nitrogen and in organic solvent.
Most silane molecules in general are placed in a brown bottle and stored at 4° C. To investigate the preservation conditions for MPS, the efficiency of the self-assembly reaction of gold nanoparticles on the MPS-modified substrate is used as an indirect indicator. There are two advantages by this approach. First, gold nanoparticles have a characteristic surface plasmon resonance band which can be easily observed in a visible light spectrum and its absorbance is related to the surface coverage of the nanoparticles modified on the surface of the substrate. Second, the peak width of the surface plasmon resonance band is related to the uniformity of the gold nanoparticles distributed on the surface of the substrate. In the present study, gold nanoparticles with 13 nm in diameter are chosen, and the characteristic absorption peak is about 530 nm. After synthesis, purified and dried MPS are separately stored under atmospheric condition at 4° C. and in a brown bottle at room temperature under nitrogen.
If the purified MPS is dissolved in organic solvent and then preserved under atmospheric condition and room temperature without avoiding light, the activity of the sample can be preserved for at least 1 year and 6 months (ex. 1 year and 7 months) (referring to FIG. 3(a)).
The activity of the sample is tested with the self-assembly reaction of gold nanoparticles on the surface of the substrate treated by the sample and then observed by visible light spectroscopy and scanning electron microscopy. The results are shown in FIG. 4(a) and FIG. 4(b) wherein, all experiments are performed by immersing the substrate in a methanol solution of MPS and then modifying gold nanoparticles on the treated substrate for 30 minutes.

- solubility of MPS in dimethyl sulfoxide (DMSO) ([1]; after 1 week): about 40%
- solubility of MPS in dimethyl sulfoxide (DMSO) ([1]; after 30 minutes): about 99%
- solubility of MPS in dimethyl sulfoxide (DMSO) ([1]; after 1 day): about 90%
- dissolution of preserved sample ([2]; purified and dried MPS in brown bottle at room temperature under nitrogen, after 5 weeks): cannot be dissolved
- dissolution of preserved sample ([2]; purified and dried MPS under atmospheric condition at 4° C., after 3 weeks): cannot be dissolved in any solvent
- time for which MPS can be preserved ([2]; traditional nitrogen preservation method under dark condition): about two
Compound: SCCC[Si]12OCCN(CCO1)CCO2 [MPS, (3-mercaptopropyl)silatrane]
